The record followed here is patent US20230242616A1, “CHEMOKINE-SELECTIVE CXCR4 ECTODOMAIN-DERIVED (POLY)PEPTIDE” (Ludwig-Maximilians-Universität München, priority 2020, published 2023).

One may read the IC50 as the concentration needed to halve the response being measured.

One series has as its system human monocytes. Put plainly: 3D migration of monocytes elicited by CXCL12. Particulars: 5-fold molar excess. The format is cell-based. From the text:
Isolation of human peripheral blood-derived monocytes. Human peripheral blood-derived monocytes were isolated as described^14. Briefly, blood was collected from healthy donors or buffy coat obtained from the blood bank of Munich University Hospital, mixed 1:1 with PBS, and PBMCs isolated by Ficoll-Paque Plus gradient (GE Healthcare). Monocytes were purified by negative depletion using the Monocyte Isolation Kit II (Miltenyi). Monocyte purity was verified by flow cytometry using an anti-CD14 antibody (Miltenyl) and was 95-98%. […] The isolation of PBMCs from donor blood was approved by the local ethics committee of LMU Munich. 3D migration of human peripheral blood-derived monocytes by time-lapse microscopy. The 3D-migration behavior of human monocytes was assessed by time-lapse microscopy and individual cell tracking using the 3D chemotaxis μ-Slide system from Ibidi GmbH (Munich, Germany), adapting the established Ibidi dendritic cell protocol for human monocytes. […] Cell motility was monitored performing time-lapse imaging every 1 min at 37° C. for 2 h using a Leica inverted DMi8-Life Cell Imaging System equipped with a DMC2900 Digital Microscope Camera with CMOS sensor and live cell-imaging software (Leica Microsystems, Wetzlar, Germany). Images were imported as stacks to ImageJ software and analyzed with the manual tracking and chemotaxis/migration tools (Ibidi GmbH).

The next series has as its system Apoe−/− mice on HFD. Put plainly: In-vivo model of early atherosclerosis. The procedure:
Seven-eight-week-old female Apoe^−/− mice were randomly divided into two groups of 11-12 mice each and both groups put on a Western-type HFD (0.2% cholesterol) for 4.5 weeks. Mice develop early-to-intermediate atherosclerotic lesions in this model^39. […] At the end of the experiment, mice were sacrificed, blood collected by cardiac puncture and saved for blood cell and lipid measurements and mice transcardially perfused with saline. Hearts, proximal aortas and carotid arteries were prepared and fixed for plaque morphometry and lesion analysis.
Quantification of plaques and vessel morphometry (oil red O and H&E staining). Cut heart tissue containing aortic root were embedded in optimum cutting temperature (OCT) (Sakura Finetek, Osaka, Japan) and frozen at −80° C. Eight-μm sections were prepared for oil-red O (ORO) staining and plaque immune cell analysis. The accumulation of macrophages in aortic root lesions was determined by an anti-MAC-2 antibody followed by Cy5-conjugated secondary antibody. Nuclei were visualized with DAPI. The aortic arch was cut, fixed in 4% paraformaldehyde (PFA) and embedded in paraffin. Ten-μm sections containing the three branches (brachiocephalic, left common carotid, and left subclavian artery) were prepared and stained with hematoxylin/eosin (HE) for vessel morphometry. Images were captured with a Leica DMi8 microscope and quantified using Image J.

Series [1] relates to primary mouse spleen B lymphocytes. The series can be described thus: Transwell chemotaxis of B cells elicited by MIF. Particulars: 16 nM MIF. The format is cell-based. Here is the method:
(§1) Chemotaxis analysis of murine B cells. A Transwell-based assay was used as described previously^34. Briefly, splenic B cells were isolated by negative depletion using a Pan B Cell Isolation Kit (Miltenyi Biotec. Bergisch Gladbach, Germany). Purity of the cells was between 95 and 99%. […] Chemotaxis was followed for 4 h at 37° C. in a humidified atmosphere of 5% CO2. Migrated cells were counted by flow cytometry using CountBright™ Absolute Counting Beads (Molecular Probes-Invitrogen).

Series [2] can be described thus: Blood cell counts, lipid levels and body weight of treated mice. In kind it is in vivo, mouse. From the text:
Blood cell counts, triglycerides and cholesterol levels. […] APC-conjugated anti-CD19, FITC-conjugated anti-CD3.

The test system of series [3] is MonoMac-6 monocytes on human aortic endothelial cells (HAoECs). Put plainly: Static monocyte adhesion, MIF-induced. The format is cell-based. Particulars: 16 nM MIF, 320 nM peptide. The procedure: Static monocyte adhesion. HAoECs were seeded at a density of 30.000 cells/well in 6 well μ-Ibidi Perfusion slides VI 0.4 (Ibidi GmbH). […] After perfusion of the chambers with fresh medium, MonoMac6 cells (1×10^6 cells/mL) in PromoCell medium were added for 30 min. Non-adhering cells were flushed away by gentle perfusion using a 30 mL syringe. To quantify adherent monocytes, 10 individual images from each treatment were acquired using a Leica DMi8 inverted microscope with a 10× objective and cells quantified using Image J.

The subject of series [4] is human monocyte-derived macrophages. Particulars: read-out: IC50 of MIF-triggered Dil-oxLDL uptake; lower threshold of effect size roughly 50%.
For series [5], the system named is human cardiomyocytes (HCM), pAMPK. Put plainly: MIF-triggered AMPK signaling in cardiomyocytes (MIF/CD74). In kind it is cell-based. Particulars: 16 nM MIF; 1- and 5-fold excess. Here is the method: CD74 signaling in human cardiomyocytes. Before stimulation, medium was replaced by fresh myocyte basal medium containing 0.05% FCS and HCMs rested for 16 h. Surface CD74 expression on HCMs was verified by flow cytometry (FITC-conjugated anti-human CD74, FITC-IgG2 (isotype control) (BD Pharmingen), 1 h/4° C. in the dark, BD FACSVerse™ flow cytometer, FlowJo software). […] After treatment, cells were lysed and subjected to SDS-PAGE/Western blotting. […] Anti-rabbit horseradish peroxidase (HRP)-conjugated antibody (1:10000, GE Healthcare, Freiburg, Germany) was used for development and signals quantitated by chemiluminescence using an Odyssey® Fc imager.

Series [6] relates to carotid arteries of Apoe−/− mice. Put plainly: Leukocyte adhesion in atherogenic carotid arteries ex vivo under flow. Details: species or system mouse. Particulars: injection three days before vessel preparation; physiological flow. The procedure: Fluos-msR4M-L1 staining and monocyte adhesion in atherosclerotic carotid arteries by multiphoton microscopy. Monocyte adhesion experiments in atherosclerotic carotid arteries under physiological flow conditions ex vivo have been established^14, 70. Seven-week-old Apoe^−/− mice were fed a Western-type HFD (0.2% cholesterol) for 12 weeks. […] On day 3, arteries were prepared and mounted into an arteriograph chamber as described^70. […] Mouse leukocytes isolated from the bone marrow of msR4M-L1- or vehicle-treated atherogenic Apoe^−/− mice were stained with fluorescent Green CMFDA or Red CMPTX (Thermo Fisher Scientific). […] The red- and green-stained cell pools were mixed at a 1:1 ratio and 3×10^6 cells in 6 mL perfused into the artery of msR4M-L1- or vehicle-treated mice, respectively. Arteries were scanned by MPM using a multispectral TCS SP8 DIVE instrument with filter-free 4TUNE NDD detection module (Leica) and the number of adherent and transmigrated leukocytes determined by scanning multi-photon excitation. Vessel structure (and plaques) were visualized by second harmonic generation (SHG).

In series [7] the test system is primary mouse spleen B lymphocytes. The series can be described thus: Transwell chemotaxis of B cells elicited by CXCL12. In kind it is cell-based. Here is the method: as §1

The structures appear in SMILES notation. “And” between values parts separate entries of the source, which are not always exact repeats. Equal entries are not always repeated.

For `CC[C@H](C)[C@H](NC(=O)[C@H](Cc1ccc(O)cc1)NC(=O)[C@H](CCCNC(=N)N)NC(=O)[C@H](CC(=O)O)NC(=O)CCCCCCCCCCCNC(=O)CCCCCNC(=O)[C@H](CCCCN)NC(=O)[C@H](CS)NC(=O)[C@H](CC(C)C)NC(=O)[C@H](Cc1ccccc1)NC(=O)[C@H](CC(N)=O)NC(=O)CNC(=O)[C@H](Cc1ccccc1)NC(=O)[C@H](Cc1ccc(O)cc1)NC(=O)[C@H](Cc1c[nH]c2ccccc12)NC(=O)[C@H](CC(N)=O)NC(=O)[C@H](C)NC(=O)[C@@H](NC(=O)[C@H](C)NC(=O)[C@@H](N)CC(=O)O)C(C)C)C(=O)N[C@@H](CS)C(=O)N[C@@H](CC(=O)O)C(=O)N[C@@H](CCCNC(=N)N)C(=O)N[C@@H](Cc1ccccc1)C(=O)N[C@@H](Cc1ccc(O)cc1)C(=O)N1CCC[C@H]1C(=O)N[C@@H](CC(N)=O)C(=O)N[C@@H](CC(=O)O)C(=O)N[C@@H](CC(C)C)C(=O)N[C@@H](Cc1c[nH]c2ccccc12)C(=O)N[C@H](C(N)=O)C(C)C` [msR4M-L1], the “effect on CXCL12-induced cell motility” value with human monocytes was “remained unaffected”. The “toxicity or side effects” value in the series on Apoe−/− mice on HFD (50 μg i.p. for 4.5 weeks) is recorded as “No toxicity or side effects were noted”. Moreover, the “number of lesional macrophages (MAC-2 staining)” value in the series on Apoe−/− mice on HFD (50 μg per mouse i.p., HFD 4.5 weeks) is reported as “significantly decreased number of lesional macrophages”. Further, the “atherosclerotic lesion size in aortic arch and root” value in the series on Apoe−/− mice on HFD (50 μg per mouse i.p., HFD 4.5 weeks, versus vehicle) was “significantly decreased”. For the same compound, in series [1], the “inhibition of MIF-mediated B-cell chemotaxis” value was “fully blocked” and the “molar excess over MIF at maximal inhibition” value was 5 -fold molar excess. Besides, in series [1] (read-out: IC50 of MIF-mediated B-lymphocyte chemotaxis), the IC50 is 10 nM and 10 to 15 nM. Besides, in [2] (Apoe−/− mice, HFD 4.5 weeks), the Leukocytes was 4632 ± 286 per μL, the Lymphocytes amounted to 2347 ± 50 per μL, the Monocytes was determined as 552 ± 51 per μL and the Neutrophils worked out at 1897 ± 46 per μL. For the same compound, in series [2] (Apoe−/− mice, HFD 4.5 weeks), the Triglycerides was 156.7 ± 3.8 mg/dL and the Weight came to 22.3 ± 0.2 g. The compound also yielded a Cholesterol in series [2] (Apoe−/− mice, HFD 4.5 weeks, means ± SD) of 647.4 ± 19.2 mg/dL. In [2] (mouse, in vivo), the “effect on body weight, plasma total cholesterol, triglyceride levels, blood leukocyte counts” value was “did not observe any effect”. Further, the “effect on MIF-induced static monocyte adhesion” value in series [3] is “ablated the pro-adhesion effect of MIF”. Moreover, in [4], the IC50 is approximately 100 nM. The “effect on MIF-upregulated pAMPK levels” value in [5] is “not attenuated”. In series [6], the “number of adhering leukocytes” value was “significantly reduced the number of adhering leukocytes”. For the same compound, the “effect on CXCL12-elicited B-cell chemotaxis” value in series [7] is “unable to inhibit chemotaxis elicited by CXCL12”.
